Values quoted from earlier work, collected in patent US11884694B2, “Non-caloric sweeteners and methods for synthesizing” (Conagen Inc., priority 2014, dated 2024).

Conditions: sweetness compared with sucrose

| SMILES | times sweeter than sucrose |
| --- | --- |
| C=C1C[C@@]23CC[C@H]4[C@@](C)(CCC[C@@]4(C)C(=O)O[C@@H]4O[C@H](CO)[C@@H](O)[C@H](O)[C@H]4O)[C@@H]2CC[C@]1(O[C@@H]1O[C@H](CO)[C@@H](O)[C@H](O)[C@H]1O[C@@H]1O[C@@H](C)[C@H](O)[C@@H](O)[C@H]1O)C3 [Dulcoside A] | about 30 times |
| C=C1C[C@@]23CC[C@H]4[C@@](C)(CCC[C@@]4(C)C(=O)O[C@@H]4O[C@H](CO)[C@@H](O)[C@H](O)[C@H]4O)[C@@H]2CC[C@]1(O[C@@H]1O[C@H](CO)[C@@H](O)[C@H](O[C@@H]2O[C@H](CO)[C@@H](O)[C@H](O)[C@H]2O)[C@H]1O[C@@H]1O[C@@H](C)[C@H](O)[C@@H](O)[C@H]1O)C3 [Rebaudioside C] | 40-60 times |
| C=C1C[C@@]23CC[C@H]4[C@@](C)(CCC[C@@]4(C)C(=O)O[C@@H]4O[C@H](CO)[C@@H](O)[C@H](O)[C@H]4O)[C@@H]2CC[C@]1(O[C@@H]1O[C@H](CO)[C@@H](O)[C@H](O)[C@H]1O[C@@H]1O[C@H](CO)[C@@H](O)[C@H](O)[C@H]1O)C3 [stevioside, Stevioside] | 100-150 times |
